For data set [1], the system named is ApoE3 Leiden mice. In words: cuff-induced neointimal thickening in femoral artery. The format is in vivo, mouse. The conditions noted are these: for intima media ratio: vs control group; for lumen size (HPS stained vessel segments): vs control group A. The text has this:
Neointimal and medial thickening is an early and essential stage in the development of atherosclerotic lesions and an essential component of restenosis. It is accompanied by fibrotic changes in the neointima and media of the vascular wall. This study evaluated the role of blocking SSAO in fibrotic disease by evaluating the effect of systemic delivery (by daily ip injection) of a small molecule SSAO inhibitor (mofegiline, BTT-2089) on cuff-induced neointimal thickening (cuff-induced stenosis) in the femoral artery of ApoE3 Leiden mice that received a moderate western type diet.
Methods: 40 male ApoE3*Leiden mice (age 12 weeks) were fed a mildly hypercholesterolemic diet for 3 weeks prior to surgical cuff placement. Treatment was daily ip injections with 1) vehicle; 2) dexamethasone in drinking water at 9 mg/I; 3) daily ip injections of BTT-2089 at 10 mg/kg; 4) BTT-2089 at 30 mg/kg, all started one day prior to surgery and continued during the experimental period. At day 0 surgery was performed, i.e. a non-constricting cuff (2-3 mm in length) was placed around both femoral arteries of the mice. 10 mice of each group were sacrificed after 2 weeks for histomorphometric analysis to quantify the inhibition of accelerated atherosclerotic lesions and neointima formation. […] This was reflected in the increased lumen size in examples of HPS stained vessel segments in SSAO inhibitor treated groups when compared to a control group (FIG. 12).
A second study, in the same model, was performed with another SSAO inhibitor from a chemical class distinct from BTT-2089. This hydrazine based inhibitor (BTT-2079) was dosed at a level of 10 mg/kg by daily i.p injection and compared with BTT-2089 at 30 mg/kg. In all other respects the study was performed in the same manner except that the dexamethasone control group was omitted. […] Vascular integrity was not affected.

Data set [2] concerns C57BL/6J mice. In words: tobacco smoke induced mouse model of COPD, BAL cell counts. The format is in vivo. The conditions noted are these: for reduction of total number of cells in BAL: 5 mg/kg orally once daily 11 days, 1 h prior to TS. As to the method: C57BL/6J mice were exposed once daily to tobacco smoke (TS) for 11 consecutive days resulting in pulmonary inflammation 24 hours following the final TS exposure. After 11 days the response comprised of significant increases in macrophages, epithelial cells, eosinophils, neutrophils and lymphocytes.
Mice were randomly divided into study groups (n=10) and treated with a vehicle (5 ml/kg PBS pH 7.4+0.1% Polysorbate 80) or mouse monoclonal anti-VAP-1 antibody (3 mg/kg or 9 mg/kg BTT-1029 in the vehicle) intravenously on Days −1, 3, 6, and 9 at 4 h post TS exposure. Another group (n=10) received the vehicle intravenously and was exposed to air for an equivalent length of time. Two further groups of mice (n=10) received another vehicle (0.5% carboxymethylcellulose, sodium salt (CMC) in sterile water) or a reference compound (5 mg/kg Roflumilast in 0.5% CMC) orally once a day for 11 consecutive days at 1 h prior to each TS exposure. A final group (n=10) received the oral vehicle (0.5% CMC) and was exposed to air for an equivalent length of time.
All results were presented as individual data points for each animal and the mean value calculated for each group. Where tests for normality were positive the data initially was subjected to a one way analysis of variance test (ANOVA), followed by a Bonferroni correction for multiple comparisons in order to test for significance between treatment groups. A “p” value of ≤0.05 was considered to be statistically significant.
All data was also subjected to the Bartlets test for equal variances and for the majority of studies variances were generally equal, however as occurred in this study, occasionally some treatment groups would give a positive result. Non parametric analyses were therefore also used. As the data was normally distributed, parametric analyses (ANOVA) were quoted.
Percentage inhibitions were automatically calculated within the Excel spreadsheets for the cell data using the formula below: […]

Setting [3] is: second study, 10 mg/kg i.p. daily.
[4] abbreviates: first study, 10 mg/kg ip daily, 2 weeks, vs NaCl 0.9% control.
Where [5] appears, read: first study, 30 mg/kg ip daily, 2 weeks, vs NaCl 0.9% control.
[6] abbreviates: second study, 30 mg/kg i.p. daily.

Regarding `CN(N)[C@H](c1ccccc1)[C@@H](O)c1ccccc1` [BTT-2079, (1S,2R)-2-(1-methylhydrazino)-1,2-diphenylethanol], in data set [1] (setting [3]), the lumen area result was “No significant changes”, the media area entry is given as “No significant changes”, the neointima formation result is recorded as “significant reduction” and the percentage lumen stenosis result is “only significantly less in the BTT-2089 30 mg/kg group”. In data set [1] (setting [3]), the vascular integrity entry is on record as “not affected”, the vessel wall diameter entry is “No significant changes” and the intima media ratio entry was “significantly less”.
As for `NC/C(=C/F)CCc1ccc(F)cc1` [BTT-2089, (E)-2-(4-fluorophenethyl)-3-fluoroallylamine], in data set [1] (setting [4]), the media formation entry is given as “significant reduction” and the neointima formation result is given as “significant reduction”. Also, the “lumen size (HPS stained vessel segments)” value in data set [1] (first study, 10 mg/kg) is given as “increased”. Moreover, in data set [1] (setting [5]), the media formation result was “significant reduction” and the neointima formation entry was “significant reduction”. Further, in data set [1] (first study, 30 mg/kg), the “lumen size (HPS stained vessel segments)” value is on record as “increased”. Further, in data set [1] (setting [6]), the lumen area result is reported as “No significant changes”, the media area result is reported as “No significant changes”, the neointima formation result is “significant reduction” and the percentage lumen stenosis entry is “significant reduction”. In data set [1] (setting [6]), the vascular integrity entry is “not affected”, the vessel wall diameter entry is listed as “No significant changes” and the intima media ratio entry is recorded as “significantly less”.
For `O=C(Nc1c(Cl)cncc1Cl)c1ccc(OC(F)F)c(OCC2CC2)c1` [Roflumilast], in data set [2] (5 mg/kg orally once daily), the “number of eosinophils in BAL” value is given as “did not significantly reduce”, the “number of macrophages in BAL” value is reported as “did not significantly reduce”, the “reduction of epithelial cells in BAL” value was found to be 51% and the “reduction of lymphocytes in BAL” value is given as 65%. Besides, the “reduction of neutrophils in BAL” value in data set [2] (5 mg/kg orally once daily) is 63%. Besides, the “reduction of total number of cells in BAL” value in data set [2] was found to be 41%. Besides, the “reduction of total number of cells in BAL” value in data set [2] (listed as roflumilast) is on record as “reduction”.

Source of the values: patent US10576148B2, “Use of VAP-1 inhibitors for treating fibrotic conditions” (BIOTIE THERAPIES CORP., priority 2009, dated 2020).
